Measurements published in the NIST ThermoML archive (doi:10.1021/je700152c).
Numbers after ± are expanded uncertainties.

Assay: molar heat capacity at saturation pressure; xn = mol fraction of the nth substance listed

CCCCn1cc[n+](C)c1.Cc1ccc(S(=O)(=O)[O-])cc1 [1-butyl-3-methylimidazolium tosylate] + O
Settings	molar heat capacity [J/K/mol]
142.92 K, Crystal, x1 = 0.3	83.64 ± 1.2
143.53 K, Metastable crystal, x1 = 0.83	208.04 ± 2.1
143.99 K, Crystal, x1 = 0.83	206.74 ± 2.1
145.47 K, Metastable crystal, x1 = 0.83	210.65 ± 2.1
145.65 K, Crystal, x1 = 0.3	84.8 ± 1.2
145.93 K, Crystal, x1 = 0.83	214.56 ± 2.1
147.41 K, Metastable crystal, x1 = 0.83	213 ± 2.1
147.86 K, Crystal, x1 = 0.83	217.43 ± 2.1
148.38 K, Crystal, x1 = 0.3	85.96 ± 1.2
149.35 K, Metastable crystal, x1 = 0.83	215.34 ± 2.1
149.8 K, Crystal, x1 = 0.83	211.69 ± 2.1
151.11 K, Crystal, x1 = 0.3	87.13 ± 1.2
151.28 K, Metastable crystal, x1 = 0.83	217.95 ± 2.1
151.76 K, Crystal, x1 = 0.83	207.26 ± 2.1
153.22 K, Metastable crystal, x1 = 0.83	220.3 ± 2.3
153.74 K, Crystal, x1 = 0.83	206.22 ± 2.1
153.84 K, Crystal, x1 = 0.3	88.29 ± 1.2
155.15 K, Metastable crystal, x1 = 0.83	222.64 ± 2.3
155.72 K, Crystal, x1 = 0.83	206.74 ± 2.1
156.57 K, Crystal, x1 = 0.3	89.45 ± 1.2
157.08 K, Metastable crystal, x1 = 0.83	224.99 ± 2.3
157.71 K, Crystal, x1 = 0.83	207.78 ± 2.1
159.01 K, Metastable crystal, x1 = 0.83	227.6 ± 2.3
159.29 K, Crystal, x1 = 0.3	90.61 ± 1.2
159.7 K, Crystal, x1 = 0.83	209.09 ± 2.1
160.94 K, Metastable crystal, x1 = 0.83	229.94 ± 2.3
161.69 K, Crystal, x1 = 0.83	210.65 ± 2.1
161.79 K, Crystal, x1 = 0.37	108.28 ± 1.3
162.02 K, Crystal, x1 = 0.3	91.78 ± 1.2
162.86 K, Metastable crystal, x1 = 0.83	232.29 ± 2.3
163.68 K, Crystal, x1 = 0.83	212.47 ± 2.1
164.74 K, Crystal, x1 = 0.3	92.94 ± 1.2
164.78 K, Metastable crystal, x1 = 0.83	234.63 ± 2.3
164.91 K, Crystal, x1 = 0.37	109.92 ± 1.4
165.67 K, Crystal, x1 = 0.83	214.3 ± 2.1
166.7 K, Metastable crystal, x1 = 0.83	236.72 ± 2.3
167.46 K, Crystal, x1 = 0.3	94.21 ± 1.2
167.65 K, Crystal, x1 = 0.83	215.86 ± 2.1
167.87 K, Crystal, x1 = 0.37	111.44 ± 1.4
168.62 K, Metastable crystal, x1 = 0.83	239.07 ± 2.3
169.64 K, Crystal, x1 = 0.83	217.69 ± 2.1
170.18 K, Crystal, x1 = 0.3	95.37 ± 1.2
170.53 K, Metastable crystal, x1 = 0.83	240.89 ± 2.3
170.82 K, Crystal, x1 = 0.37	112.95 ± 1.4
171.63 K, Crystal, x1 = 0.83	219.51 ± 2.1
172.45 K, Metastable crystal, x1 = 0.83	243.24 ± 2.3
172.9 K, Crystal, x1 = 0.3	96.64 ± 1.3
173.61 K, Crystal, x1 = 0.83	221.34 ± 2.3
173.77 K, Crystal, x1 = 0.37	114.59 ± 1.4
174.36 K, Metastable crystal, x1 = 0.83	245.32 ± 2.3
175.6 K, Crystal, x1 = 0.83	223.42 ± 2.3
175.61 K, Crystal, x1 = 0.3	97.91 ± 1.3
176.27 K, Metastable crystal, x1 = 0.83	247.15 ± 2.3
176.72 K, Crystal, x1 = 0.37	116.23 ± 1.4
177.58 K, Crystal, x1 = 0.83	224.99 ± 2.3
178.18 K, Metastable crystal, x1 = 0.83	248.97 ± 2.3
178.32 K, Crystal, x1 = 0.3	99.28 ± 1.3
179.56 K, Crystal, x1 = 0.83	227.07 ± 2.3
179.67 K, Crystal, x1 = 0.37	118.38 ± 1.4
180.09 K, Metastable crystal, x1 = 0.83	250.8 ± 2.3
181.02 K, Crystal, x1 = 0.3	101.4 ± 1.3
181.54 K, Crystal, x1 = 0.83	228.9 ± 2.3
181.99 K, Metastable crystal, x1 = 0.83	252.62 ± 2.6
182.6 K, Crystal, x1 = 0.37	121.41 ± 1.4
183.52 K, Crystal, x1 = 0.83	230.72 ± 2.3
183.7 K, Crystal, x1 = 0.3	104.68 ± 1.3
183.9 K, Metastable crystal, x1 = 0.83	254.19 ± 2.6
185.5 K, Crystal, x1 = 0.37	126.71 ± 1.5
185.5 K, Crystal, x1 = 0.83	232.81 ± 2.3
185.8 K, Metastable crystal, x1 = 0.83	256.01 ± 2.6
186.36 K, Crystal, x1 = 0.3	107.53 ± 1.3
187.47 K, Crystal, x1 = 0.83	234.9 ± 2.3
